{
  "source": "paper PMC11193023",
  "about": "(The Journal of Biological Chemistry, 2024)",
  "molecular_target": "T1, BwCuyA (Bilophila wadsworthia, UniProt E5Y343)",
  "T1 sequence (E5Y343 1-333)": "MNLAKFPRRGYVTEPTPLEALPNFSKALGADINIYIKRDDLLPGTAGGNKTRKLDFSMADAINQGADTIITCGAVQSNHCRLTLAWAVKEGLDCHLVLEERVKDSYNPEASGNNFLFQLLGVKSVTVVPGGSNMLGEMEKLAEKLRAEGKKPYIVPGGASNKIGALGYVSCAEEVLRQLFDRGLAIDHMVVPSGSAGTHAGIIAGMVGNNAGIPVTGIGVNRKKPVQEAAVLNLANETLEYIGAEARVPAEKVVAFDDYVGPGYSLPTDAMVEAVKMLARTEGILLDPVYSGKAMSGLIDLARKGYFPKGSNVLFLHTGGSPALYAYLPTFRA",
  "assay": "UV-Vis absorbance spectrum of purified enzyme",
  "type": "binding",
  "conditions": "enzyme as isolated; sub-stoichiometric PLP content",
  "data": [
    {"compound": "Cc1ncc(COP(=O)(O)O)c(C=O)c1O", "note": "[PLP]", "values": [
      {"measurement": "UV-Vis absorbance spectrum of purified enzyme", "value": "UV-Vis absorbance spectrum of BwCuyA exhibited characteristic features of the PLP cofactor"}
    ]}
  ]
}
